# Data taken from US20240425479A1, “HALO-SUBSTITUTED AMINO AZA-HETEROARYL COMPOUNDS AS INHIBITORS OF THE HAEMATOPOIETIC PROGENITOR KINASE 1 (HPK1)” (priority 2021, published 2024).
# Target: T1, Recombinant (1-346) HPK1 (h) (Homo sapiens, UniProt Q92918)
# T1 construct: Recombinant (1-346) HPK1 (h) is incubated with 8 mM MOPS pH 7.0
# T1 sequence (Q92918 1-346): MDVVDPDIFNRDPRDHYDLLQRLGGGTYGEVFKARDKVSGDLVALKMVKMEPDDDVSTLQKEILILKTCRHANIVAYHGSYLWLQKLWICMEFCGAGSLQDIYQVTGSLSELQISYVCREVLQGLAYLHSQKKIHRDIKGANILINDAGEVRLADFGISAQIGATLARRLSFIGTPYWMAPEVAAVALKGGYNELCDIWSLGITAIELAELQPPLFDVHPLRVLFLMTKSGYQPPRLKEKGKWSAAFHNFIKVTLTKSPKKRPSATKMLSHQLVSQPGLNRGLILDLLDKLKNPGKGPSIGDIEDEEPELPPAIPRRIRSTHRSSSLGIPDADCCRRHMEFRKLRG
# Assay: HPK1 human STE kinase enzymatic radiometric assay
# Assay type: biochemical
# Settings: read-out: HPK1 IC50 nM Range
# How it was run: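 Recombinant HPK1 (1-346) incubated 40 min at RT with 0.33 mg/mL myelin basic protein and [gamma-33P]-ATP in 8 mM MOPS pH 7.0, 0.2 mM EDTA, 10 mM Mg acetate; reaction started with Mg/ATP. Stopped with 0.5% phosphoric acid, spotted on P30 filtermat, washed, scintillation counted. Compounds tested as 9-point 3-fold dilutions.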
row,SMILES,IC50 [nM]
1,"Nc1nc(F)c(-c2ccc(N3CCOCC3)c(CN3CCCC3)c2)nc1-c1ccc2c(=O)[nH]ccc2c1 [Example I-114, 6-(3-amino-5-fluoro-6-(4-morpholino-3-(pyrrolidin-1-ylmethyl)phenyl)pyrazin-2-yl)isoquinolin-1(2H)-one]",0.1 to 10
2,"Cc1[nH]c(=O)c2c(F)cc(-c3nc(-c4ccc(N5CCN(C(C)C)CC5)cc4)c(F)nc3N)cc2c1F [Example I-111, 6-(3-amino-5-fluoro-6-(4-(4-isopropylpiperazin-1-yl)phenyl)pyrazin-2-yl)-4,8-difluoro-3-methylisoquinolin-1(2H)-one]",0.1 to 10
3,"CC(C)N1CCN(c2ccc(-c3nc(-c4ccc5c(c4)CCNC5=O)c(N)nc3F)cc2)[C@H](C)C1 [Example I-50, (R)-6-(3-amino-5-fluoro-6-(4-(4-isopropyl-2-methylpiperazin-1-yl)phenyl)pyrazin-2-yl)-3,4-dihydroisoquinolin-1(2H)-one]",0.1 to 10
4,"Nc1nc(F)c(-c2ccc(N3CCOCC3)c(CN3CCC3)c2)nc1-c1ccc2c(c1)CCNC2=O [Example I-144, 6-(3-amino-6-(3-(azetidin-1-ylmethyl)-4-morpholinophenyl)-5-fluoropyrazin-2-yl)-3,4-dihydroisoquinolin-1(2H)-one]",0.1 to 10
5,"CCN1CCN(c2ccc(-c3nc(-c4ccc5c(c4)CCNC5=O)c(N)nc3F)cc2)CC1 [Example I-55, 6-(3-amino-6-(4-(4-ethylpiperazin-1-yl)phenyl)-5-fluoropyrazin-2-yl)-3,4-dihydroisoquinolin-1(2H)-one]",0.1 to 10

# More lines, now with the values ahead:
row,IC50 [nM],SMILES
1,101 to 1000,"Cc1c[nH]c(=O)c2ccc(-c3nc(-c4cc(CN(C)C)c(N5CCOCC5)cc4F)c(F)nc3N)cc12 [Example I-261, 6-(3-amino-6-(5-((dimethylamino)methyl)-2-fluoro-4-morpholinophenyl)-5-fluoropyrazin-2-yl)-4-methylisoquinolin-1(2H)-one]"
2,0.1 to 10,"Nc1nc(F)c(-c2ccc(C3CCOCC3)c(CN3CCCC3)c2)nc1-c1ccc2c(=O)[nH]cc(F)c2c1 [Example I-207, 6-(3-amino-5-fluoro-6-(3-(pyrrolidin-1-ylmethyl)-4-(tetrahydro-2H-pyran-4-yl)phenyl)pyrazin-2-yl)-4-fluoroisoquinolin-1(2H)-one]"
3,11 to 100,"CN(C)Cc1cc(-c2nc(-c3ccc4c(=O)[nH]cc(F)c4c3)c(N)nc2F)c(F)c(F)c1N1CCOCC1 [Example I-263, 6-(3-amino-6-(5-((dimethylamino)methyl)-2,3-difluoro-4-morpholinophenyl)-5-fluoropyrazin-2-yl)-4-fluoroisoquinolin-1(2H)-one]"
4,0.1 to 10,"CN(C)Cc1cc(-c2nc(-c3ccc4c(=O)[nH]cc(Cl)c4c3)c(N)nc2F)ccc1N1CCOCC1 [Example I-153, 6-(3-amino-6-(3-((dimethylamino)methyl)-4-morpholinophenyl)-5-fluoropyrazin-2-yl)-4-chloroisoquinolin-1(2H)-one]"
5,11 to 100,"Nc1nc(F)c(-c2ccc(OC3CCOCC3)c(CN3CCC3)c2)nc1-c1ccc2c(c1)CCNC2=O [Example I-208, 6-(3-amino-6-(3-(azetidin-1-ylmethyl)-4-((tetrahydro-2H-pyran-4-yl)oxy)phenyl)-5-fluoropyrazin-2-yl)-3,4-dihydroisoquinolin-1(2H)-one]"
6,11 to 100,"CC1NC(=O)c2c(F)cc(-c3nc(-c4ccc([C@]56C[C@H]5CN(C5CCC5)C6)cc4)c(F)nc3N)cc2C1(F)F (stereo partly drawn) [Example I-195, 6-(3-amino-6-(4-((1S,5R)-3-cyclobutyl-3-azabicyclo[3.1.0]hexan-1-yl)phenyl)-5-fluoropyrazin-2-yl)-4,4,8-trifluoro-3-methyl-3,4-dihydroisoquinolin-1(2H)-one]"
7,0.1 to 10,"COc1ccc(-c2nc(-c3ccc4c(c3)CCNC4=O)c(N)nc2F)cc1C(C)N(C)C (stereo not drawn) [Example I-290, 6-(3-amino-6-(3-(1-(dimethylamino)ethyl)-4-methoxyphenyl)-5-fluoropyrazin-2-yl)-3,4-dihydroisoquinolin-1(2H)-one]"
